What was measured:
Assay type in all cases: in vivo, rat
[1] = tested on: CRH peptide, CRHR1 and glucocorticoid receptor (GR) in hypothalamus and hippocampus; assay: Brain immunohistochemistry (percent of area immunolabeled)
Experimental: Protocols previously published (Torres-Reveron et al., 2016, 2009, 2008) were followed. Rats were perfused with 4% paraformaldehyde by aortic arch perfusion and brains were removed and stored in cryoprotectant solution (30% sucrose, 30% ethylene glycol) until further processing. Coronal tissue sections (40 μm thick) through the hypothalamus (sections 0.92 to 1.88 caudal to Bregma) and dorsal hippocampus (sections 3.8 to 4.3 caudal to Bregma), which include the amygdala were selected and incubated in antiserum raised against CRHR1 (goat polyclonal, Abcam, cat. ab59023), CRH peptide antibody (guinea pig polyclonal, Peninsula labs., cat. T-5007) or glucocorticoid receptor antibody (GR, rabbit monoclonal, Cell Signaling cat. #3660) for 48 hrs. at 4° C. Optimal working concentrations were determined for each antibody. The primary antibody was labeled with CY3 secondary antibody (1:400 Jackson ImmunoResearch, West Grove, Pa.). Images were taken at the same time and illumination (excitation) and background corrected to control for batch effects. All regions of interest were analyzed using Image J software (open access from NIH) to calculate the percent of positive immunolabeling within the region of interest. Tissue from control and experimental animals was processed together. For each animal, the two best morphologically preserved sections of each region of interest were included in the analysis.

anxiety behaviors = assay: Anxiety behaviors: open field and elevated zero maze; conditions: day 60; compared to sham group
Experimental: One day before behavioral assessment and sacrifice a subset of rats (6 vehicle and 6 antalarmin) were subjected to an acute episode of swim stress of 10 min and compared to no stress controls to assess how rats respond to acute activation of the HPA axis. For this, animals were placed in a Plexiglas tank for 10 min in water at 25° C. Rats were towel dried and kept in warm cage after swim until fur dried. The next day, two behavioral tasks were used to assess anxiety behaviors. The open field test is used to quantify exploratory and locomotor activity of a rodent in an open arena. The apparatus used was a square wood arena (91×91×38 cm) with overhead light illumination and video monitoring to record animal activity using Any-Maze software (Stoelting, Wood Dale, Ill.). The following behaviors were quantified during 20 minutes: 1) total distance moved, 2) time spent moving, 3) time spent in the center of the arena, 4) time spent near the walls of the arena (defined by the 15 cm of floor arena closest to the walls) and 5) total fecal pellets. The more time the animal spends in the center of the arena compared to the space adjacent to the wall is considered as having less anxiety. At the end of the testing period, animals were returned to the home cage and after a 5-min break were tested in the elevated zero-maze.
The elevated zero-maze is very similar to the more traditional elevated plus maze test, with the advantage of not having a neutral (undefined) zone in the middle. The apparatus consisted of a circle with an arm width of 10 cm and elevated 40 cm from floor. […] Rats were allowed to run the maze for 5 consecutive minutes and recorded using the Any-Maze software (Stoelting, Wood Dale, Ill.). The following parameters were analyzed by the Any-Maze program: 1) total distance travelled in the maze, 2) time spent in the open/closed arms and 2) number of entries made by the rodent onto the open/closed arms. When 60% of the animal body entered the arm, the program counted is as an entry. In addition, total fecal pellets in the maze were quantified. […]

[2] = tested on: CRHR1, CRHR2, CRH and GR mRNA in hippocampus; assay: qRT-PCR of mRNA levels in hippocampus; conditions: day 60
Experimental: Endometriosis vesicles and normal uterine tissue from endometriosis or sham rats, were lysed in an RLT buffer (QIAGEN, Germantown, Md.) using the BULLET BLENDER Tissue Homogenizer (NEXT ADVANCE, Averill Park, N.Y.). The total RNA from the lysates were extracted according to RNEASY Mini Kit manufacturer's protocol (QIAGEN, Germantown, Md.). RNA concentration and purity were measured on a NanoDrop™ 2000 UV spectrophotometer (Thermo Scientific™, Wilmington, USA). Concentration and quality of RNA samples were acquired based on the ratio of absorbance at 260/280 nm in the spectrophotometer. To carry out the synthesis of cDNA from RNA samples a total reaction volume of 20 μl including 0.1 μg of total RNA concentration and synthesis reagents was used. A iScript™ cDNA Synthesis Kit was used according to manufacturer's protocol (BIO-RAD, Hercules, Calif.). Reactions were carried out in T-100™ thermal cycler (BIO-RAD, Hercules, Calif.). RT-PCR running method was as follows: 25° C. for 5 min, 42° C. for 30 min, 85° C. for 5 min. Samples were stored at −80° C. for later experimentation or qRT-PCR.
Real time quantitative PCR (qPCR) was used to evaluate changes in mRNA expression. For this, 25 μl of a total volume of reaction assay was used with 1:10 dilution of cDNA with iQ™ SYBR Green Supermix (BIO-RAD Hercules, Calif.) in a 96 well plate according to the manufacturer protocol and amplified in a Quant Studio™ 12 K Flex Real time PCR System (Applied Biosystems™, Carlsbad, Calif.). Commercial primers for CRH, UCN1 CRHR1, CRHR2 and glucocorticoid receptor (GR) were purchased from QIAGEN (Germantown, Md.). Real time PCR cycles protocol was as follows: 95° C. for 10 min. for enzyme activation followed by 40 cycles of denaturing at 95° C. for 15 sec. and annealing at 60° C. for 1 min. All changes in gene expression were normalized against GAPDH of each sample. CT values and changes per gene expression level were automatically analyzed by the Quantstudio™ 12 K Flex Software (Applied Biosystems™, Carlsbad, Calif.). All samples were run in duplicate. For comparison purposes, mRNA from sham rats were always run within the same plate as experimental samples from vehicle treated and antalarmin treated groups.
Endometriosis and antalarmin have long-lasting effects in the brain. Previous work reported a decrease in CRH within hippocampus of animals with endometriosis compared to sham rats that were subject to stress. Given that antalarmin readily crosses the blood brain barrier, the effects of treatment in the hippocampus was quantified. […] It appears that the increase in CRH1 was balanced out by an equally similar increase in CRH2. This was not observed in the vehicle treated groups (FIGS. 10A and 10B). mRNA was collected and quantified as described in Example 1. […]

[3] = compared to sham, both endometriosis groups regardless of treatment
[4] = normalized to sham, large variability

CCCCN(CC)c1nc(C)nc2c1c(C)c(C)n2-c1c(C)cc(C)cc1C [antalarmin]
CRHR1 immunolabeling in dentate gyrus (DG) [1, 3]: Large increases in CRHR1 labeling
GR immunolabeling in dentate gyrus (DG) [1, 3]: Large increases in GR labeling
CRH peptide immunolabeling in PVN and hippocampus ([1]; day 60): No changes in CRH peptide
CRHR1 immunolabeling in CA3 ([1]; day 60): No changes in CRHR1
GR immunolabeling in CA3 ([1]; day 60): no changes in GR
open field: total distance traveled (anxiety behaviors): significantly lower
zero maze: locomotor activity (anxiety behaviors): higher locomotor activity
zero maze: time in the open arms (anxiety behaviors): strong trend for both groups of rats with endometriosis to spend less time in the open arms
hippocampal CRH mRNA ([2]; compared to sham): increase in hippocampal CRH mRNA of similar magnitude
hippocampal GR mRNA ([2]; compared to sham): fourfold increase
hippocampal CRHR1 mRNA increase [2, 4]: 15 fold
hippocampal CRHR2 mRNA increase [2, 4]: 15 fold
